Reference: patent US7723368B2, “Amino-5-[4-(difluoromethoxy)phenyl]-5-phenylimidazolone compounds for the inhibition of beta-secretase” (Wyeth LLC, priority 2007, dated 2010)

Biological target: human BACE1 (Homo sapiens, UniProt P56817)
Experiment: BACE1 fluorescent kinetic assay (cleavage of peptide substrate WABC-6)
Type: biochemical
Conditions: Activity Table, Examples 1-108; 10 nM enzyme, 25 μM substrate WABC-6, pH 4.5, room temperature
Protocol: Evaluation of BACE1 Binding Affinity of Test Compounds
Fluorescent Kinetic Assays
Dilution and mixing steps: total reaction volume: 100 μL
100 μM substrate dilution in 1×PBS was prepared, and
Fluorescence Readings: Readings at λex 320 nm and λem 420 nm are taken every 40 sec for 30 min at room temperature and the linear slope for substrate cleavage rate (vi) determined.

Sequence of human BACE1 (P56817 46-501): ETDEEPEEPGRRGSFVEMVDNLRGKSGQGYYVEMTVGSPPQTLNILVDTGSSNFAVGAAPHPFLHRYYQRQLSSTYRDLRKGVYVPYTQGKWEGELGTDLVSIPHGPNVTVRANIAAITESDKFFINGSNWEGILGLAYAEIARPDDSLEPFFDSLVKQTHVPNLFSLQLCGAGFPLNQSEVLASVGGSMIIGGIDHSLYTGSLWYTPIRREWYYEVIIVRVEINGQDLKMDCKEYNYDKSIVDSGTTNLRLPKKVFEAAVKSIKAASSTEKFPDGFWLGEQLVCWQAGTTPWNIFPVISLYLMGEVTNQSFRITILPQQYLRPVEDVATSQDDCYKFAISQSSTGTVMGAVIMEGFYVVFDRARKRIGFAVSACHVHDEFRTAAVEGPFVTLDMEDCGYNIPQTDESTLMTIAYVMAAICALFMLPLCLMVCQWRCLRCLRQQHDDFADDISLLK

IC50, > 1000 nM:
CN(C)Cc1cccc(C2(c3ccc(OC(F)F)cc3)N=C(N)N(C)C2=O)c1 (stereo not drawn) [Example 62, 2-amino-5-[4-(difluoromethoxy)phenyl]-5-{3-[(dimethylamino)-methyl]phenyl}-3-methyl-3,5-dihydro-4H-imidazol-4-one]
CN1C(=O)C(c2ccc(OC(F)F)cc2)(c2cccc(CN3CCCC3)c2)N=C1N (stereo not drawn) [Example 66, 2-amino-5-[4-(difluoromethoxy)phenyl]-3-methyl-5-[3-(pyrrolidin-1-ylmethyl)phenyl]-3,5-dihydro-4H-imidazol-4-one]
CN1C(=O)C(c2ccc(OC(F)F)cc2)(c2ccc(OC(F)F)cc2)N=C1N [Example 67, 2-amino-5,5-bis[4-(difluoromethoxy)phenyl]-3-methyl-3,5-dihydro-4H-imidazol-4-one]
CN1C(=O)C(c2ccc(OC(F)F)cc2)(c2cccc(C3CC3)c2)N=C1N (stereo not drawn) [Example 70, 2-amino-4-(3-cyclopropylphenyl)-4-(4-(difluoromethoxy)phenyl)-1-methyl-1H-imidazol-5(4H)-one]
C/C=C/c1cc(C2(c3ccc(OC(F)F)cc3)N=C(N)N(C)C2=O)ccc1F (stereo not drawn) [Example 75C, 2-amino-5-[4-(difluoromethoxy)phenyl]-5-{4-fluoro-3-[(1E)-prop-1-en-1-yl]phenyl}-3-methyl-3,5-dihydro-4H-imidazol-4-one]
C/C=C\c1cc([C@]2(c3ccc(OC(F)F)cc3)N=C(N)N(C)C2=O)ccc1F [Example 76A, (5S)-2-amino-5-[4-(difluoromethoxy)phenyl]-5-{4-fluoro-3-[(1Z)-prop-1-en-1-yl]phenyl}-3-methyl-3,5-dihydro-4H-imidazol-4-one]
C/C=C\c1cc([C@@]2(c3ccc(OC(F)F)cc3)N=C(N)N(C)C2=O)ccc1F [Example 76B, (5R)-2-amino-5-[4-(difluoromethoxy)phenyl]-5-{4-fluoro-3-[(1Z)-prop-1-en-1-yl]phenyl}-3-methyl-3,5-dihydro-4H-imidazol-4-one]
C/C=C/c1cc([C@]2(c3ccc(OC(F)F)cc3)N=C(N)N(C)C2=O)ccc1F [Example 77A, (5S)-2-amino-5-[4-(difluoromethoxy)phenyl]-5-{4-fluoro-3-[(1E)-prop-1-en-1-yl]phenyl}-3-methyl-3,5-dihydro-4H-imidazol-4-one]
CN1C(=O)[C@](c2ccc(OC(F)F)cc2)(c2ccc(F)c(C#CCCF)c2)N=C1N [Example 103, (5S)-2-amino-5-[4-(difluoromethoxy)phenyl]-5-[4-fluoro-3-(4-fluorobut-1-yn-1-yl)phenyl]-3-methyl-3,5-dihydro-4H-imidazol-4-one]

IC50, 110 to 1000 nM:
CCNCc1cccc(C2(c3ccc(OC(F)F)cc3)N=C(N)N(C)C2=O)c1 (stereo not drawn) [Example 63, 2-amino-5-[4-(difluoromethoxy)phenyl]-5-{3-[(ethylamino)methyl]phenyl}-3-methyl-3,5-dihydro-4H-imidazol-4-one]
CCCNCc1cccc(C2(c3ccc(OC(F)F)cc3)N=C(N)N(C)C2=O)c1 (stereo not drawn) [Example 64, 2-amino-5-[4-(difluoromethoxy)phenyl]-3-methyl-5-{3-[(propylamino)-methyl]phenyl}-3,5-dihydro-4H-imidazol-4-one]
CCCCNCc1cccc(C2(c3ccc(OC(F)F)cc3)N=C(N)N(C)C2=O)c1 (stereo not drawn) [Example 65, 2-amino-5-{3-[(butylamino)methyl]phenyl}-5-[4-(difluoromethoxy)phenyl]-3-methyl-3,5-dihydro-4H-imidazol-4-one]
CN1C(=O)C(c2ccc(OC(F)F)cc2)(c2cccc(CNCc3ccco3)c2)N=C1N (stereo not drawn) [Example 68, 2-amino-5-[4-(difluoromethoxy)phenyl]-5-(3-{[(2-furylmethyl)-amino]methyl}phenyl)-3-methyl-3,5-dihydro-4H-imidazol-4-one]
C=CC[C@@H](C)c1cccc(C2(c3ccc(OC(F)F)cc3)N=C(N)N(C)C2=O)c1 (stereo partly drawn) [Example 69, 2-amino-4-(4-(difluoromethoxy)phenyl)-1-methyl-4-(3-((R)-pent-4-en-2-yl)phenyl)-1H-imidazol-5(4H)-one]
COC/C=C(\C)c1cccc(C2(c3ccc(OC(F)F)cc3)N=C(N)N(C)C2=O)c1 (stereo not drawn) [Example 71, (E)-2-amino-4-(4-(difluoromethoxy)phenyl)-4-(3-(4-methoxybut-2-en-2-yl)phenyl)-1-methyl-1H-imidazol-5(4H)-one]
Cc1cccc(C2(c3ccc(OC(F)F)cc3)N=C(N)N(C)C2=O)c1 (stereo not drawn) [Example 74, 2-Amino-5-[4-(difluoromethoxy)phenyl]-3-methyl-5-(3-methylphenyl)-3,5-dihydro-4H-imidazol-4-one]
CC=Cc1cc(C2(c3ccc(OC(F)F)cc3)N=C(N)N(C)C2=O)ccc1F (stereo not drawn) [Example 75A, 2-amino-5-[4-(difluoromethoxy)phenyl]-5-(4-fluoro-3-prop-1-en-1-ylphenyl)-3-methyl-3,5-dihydro-4H-imidazol-4-one]
C/C=C\c1cc(C2(c3ccc(OC(F)F)cc3)N=C(N)N(C)C2=O)ccc1F (stereo not drawn) [Example 75B, 2-amino-5-[4-(difluoromethoxy)phenyl]-5-{4-fluoro-3-[(1Z)-prop-1-en-1-yl]phenyl}-3-methyl-3,5-dihydro-4H-imidazol-4-one]
CN1C(=O)C(c2ccc(OC(F)F)cc2)(c2cccc(O)c2)N=C1N (stereo not drawn) [Example 81, 2-Amino-5-[4-(difluoromethoxy)phenyl]-5-(3hydroxyphenyl)-3-methyl-3,5-dihydro-4H-imidazol-4-one]
CN1C(=O)C(c2ccc(OC(F)F)cc2)(c2ccc(F)c(N3CCOCC3)c2)N=C1N (stereo not drawn) [Example 86, 2-amino-4-(4-(difluoromethoxy)phenyl)-4-(4-fluoro-3-morpholinophenyl)-1-methyl-1H-imidazol-5(4H)-one]
CN1C(=O)C(c2ccc(OC(F)F)cc2)(c2cccc(Cc3ccco3)c2)N=C1N (stereo not drawn) [Example 88, 2-amino-4-(4-(difluoromethoxy)phenyl)-4-(3-(furan-2-ylmethyl)phenyl)-1-methyl-1H-imidazol-5(4H)-one]
CN1C(=O)[C@](c2ccc(OC(F)F)cc2)(c2ccc(F)c(OCCC(F)F)c2)N=C1N [Example 93, (5S)-2-Amino-5-[4-(difluoromethoxy)phenyl]-5-[3-(3,3-difluoropropoxy)-4-fluorophenyl]-3-methyl-3,5-dihydro-4H-imidazol-4-one]
Cc1cccc(C2(c3ccc(OC(F)F)cc3)N=C(N)N(C)C2=O)c1 (stereo not drawn) [Example 95, 2-Amino-5-[4-(difluoromethoxy)phenyl]-3-methyl-5-(3-methylphenyl)-3,5-dihydro-4H-imidazol-4-one]

IC50, < 100 nM:
CCOCCC#Cc1cccc(C2(c3ccc(OC(F)F)cc3)N=C(N)N(C)C2=O)c1 (stereo not drawn) [Example 73, 2-Amino-5-[4-(difluoromethoxy)phenyl]-5-[3-(4-ethoxybut-1-yn-1-yl)phenyl]-3-methyl-3,5-dihydro-4H-imidazol-4-one]
C/C=C/c1cc([C@@]2(c3ccc(OC(F)F)cc3)N=C(N)N(C)C2=O)ccc1F [Example 77B, (5R)-2-amino-5-[4-(difluoromethoxy)phenyl]-5-{4-fluoro-3-[(1E)-prop-1-en-1-yl]phenyl}-3-methyl-3,5-dihydro-4H-imidazol-4-one]
C=CC#Cc1cc(C2(c3ccc(OC(F)F)cc3)N=C(N)N(C)C2=O)ccc1F (stereo not drawn) [Example 87, 2-amino-4-(3-(but-3-en-1-ynyl)-4-fluorophenyl)-4-(4-(difluoromethoxy)phenyl)-1-methyl-1H-imidazol-5(4H)-one]
CN1C(=O)C(c2ccc(OC(F)F)cc2)(c2ccc(F)c(OCCC(F)F)c2)N=C1N (stereo not drawn) [Example 92, 2-Amino-5-[4-(difluoromethoxy)phenyl]-5-[3-(3,3-difluoropropoxy)-4-fluorophenyl]-3-methyl-3,5-dihydro-4H-imidazol-4-one]
CN1C(=O)[C@@](c2ccc(OC(F)F)cc2)(c2ccc(F)c(OCCC(F)F)c2)N=C1N [Example 94, (5R)-2-Amino-5-[4-(difluoromethoxy)phenyl]-5-[3-(3,3-difluoropropoxy)-4-fluorophenyl]-3-methyl-3,5-dihydro-4H-imidazol-4-one]
CCOCCC#Cc1cccc(C2(c3ccc(OC(F)F)cc3)N=C(N)N(C)C2=O)c1 (stereo not drawn) [Example 96, 2-Amino-5-[4-(difluoromethoxy)phenyl]-5-[3-(4-ethoxybut-1-yn-1-yl)phenyl]-3-methyl-3,5-dihydro-4H-imidazol-4-one]
CN1C(=O)C(c2ccc(OC(F)F)cc2)(c2ccc(F)c(C#CCF)c2)N=C1N (stereo not drawn) [Example 99, 2-amino-5-[4-(difluoromethoxy)phenyl]-5-[4-fluoro-3-(3-fluoroprop-1-yn-1-yl)phenyl]-3-methyl-3,5-dihydro-4H-imidazol-4-one]
CN1C(=O)C(c2ccc(OC(F)F)cc2)(c2ccc(F)c(C#CCCF)c2)N=C1N (stereo not drawn) [Example 102, 2-amino-5-[4-(difluoromethoxy)phenyl]-5-[4-fluoro-3-(4-fluorobut-1-yn-1-yl)phenyl]-3-methyl-3,5-dihydro-4H-imidazol-4-one]
CN1C(=O)[C@@](c2ccc(OC(F)F)cc2)(c2ccc(F)c(C#CCCF)c2)N=C1N [Example 104, (5R)-2-amino-5-[4-(difluoromethoxy)phenyl]-5-[4-fluoro-3-(4-fluorobut-1-yn-1-yl)phenyl]-3-methyl-3,5-dihydro-4H-imidazol-4-one]
CN1C(=O)[C@@](c2ccc(OC(F)F)cc2)(c2ccc(F)c(C#CCF)c2)N=C1N [Example 107, (5R)-2-amino-5-[4-(difluoromethoxy)phenyl]-5-[4-fluoro-3-(3-fluoroprop-1-yn-1-yl)phenyl]-3-methyl-3,5-dihydro-4H-imidazol-4-one]
